# According to patent US8093239B2, “Imidazopyridine kinase inhibitors” (GlaxoSmithKline LLC, priority 2007, dated 2012):
# Assays:
# [1] = tested on: LISN cell (mouse 3T3 fibroblasts transduced with human IGF-1R) tumors; test: In vivo efficacy, mice bearing LISN cell tumors; conditions: for tumor growth inhibition at day 21: LISN tumors (~362 mm^3)
# Method: E. In Vivo Efficacy—Mouse Models
# The efficacy of the compounds of Examples 57 and 58 were assessed together in an in vivo efficacy experiment performed on mice bearing LISN cell (mouse 3T3 fibroblasts transduced with human IGF-1R) tumors. Fifty six female nude mice bearing subcutaneous LISN cell tumors were measured for tumor size and body weight and block randomized into seven groups of eight mice with an equal average tumor volume of approximately 200 mm3. Mice were dosed with either vehicle (20% SBE pH3.5), Example 57 or Example 58. The dosing schedules for each compound were based on previous experiments with the compounds and doses chosen to give the highest tumor growth inhibition and a dose response. Example 58 was dosed at 30, 100 and 300 mg/kg QD for 21 days while Example 57 was dosed at 30 mg/kg QD for 21 days, 15 mg/kg BID for 21 days and 30 mg/kg QD×3 days/week for 3 weeks.
# The tumors on mice being treated with vehicle grew with the expected exponential growth throughout the 21 day study. […] The lower dose of 30 mg/kg of Example 58 achieved 28% tumor growth inhibition.
# The efficacy of the compounds of Examples 237 and 219 were assessed together in an in vivo efficacy experiment performed on mice bearing LISN cell (mouse 3T3 fibroblasts transduced with human IGF-1R) tumors. Sixty four female nude mice bearing subcutaneous LISN cell tumors were measured for tumor size and body weight and block randomized into eight groups of eight mice with an equal average tumor volume of approximately 362 mm^3. Mice were dosed with either vehicle (20% SBE pH3.5), Example 237 or Example 219. The dosing schedules for each compound were based on previous experiments with the compounds and doses chosen to give the highest tumor growth inhibition and a dose response. Example 237 was administered at 30 and 60 mg/kg QD for 21 days and 30 mg/kg BID for 21 days while Example 219 was administered at 50 and 100 mg/kg QD for 21 days, 25 and 50 mg/kg BID for 21 days.
# The tumors on mice being treated with vehicle grew with the expected exponential growth throughout the 21 day study. […] The lower dose of 30 mg/kg QD of Example 237 achieved 15% tumor growth inhibition at day 21 (note: 2 animals were euthanized prior to the last measurement). […] This recovered to 3% by the end of dosing and fully recovered after dosing was concluded. […] This recovered fully within 4 days after the completion of dosing.
# [2] = tested on: BT474 cell tumors (breast carcinoma cell line); test: In vivo efficacy, BT474 tumor bearing mice; parameters: species or system mouse; conditions: BT474 study, all groups (60, 30, 15 mg/kg QD, 15 mg/kg BID)
# Method: (§1) In addition to the LISN xenograft efficacy studies, Example 57 has also been assessed in vivo in two other mouse models of cancer, including: Colo-205 tumor bearing mice (colon carcinoma cell line) and BT474 tumor bearing mice (breast carcinoma cell line). Forty female nude mice bearing Colo-205 tumors (average tumor size of 200 mm3) were randomized into five groups of eight mice and dosed with either vehicle (20% SBE pH3.5) or Example 57 at 100, 30, 10 mg/kg QD or 30 mg/kg BID for 21 days. The groups of mice dosed with the higher doses of Example 57 (100 mg/kg QD and 30 mg/kg BID) lost greater than 20% body weight within 10 days of dosing so were taken off the study and allowed to recover. […] The higher doses of 100 mg/kg QD×10 and 30 mg/kg BID×10 achieved 72 and 49% tumor growth inhibition respectively.
# Due to the body weight loss seen with the higher doses in the Colo-205 xenograft efficacy study, the dosing regime was altered for the follow up BT474 study. Forty female nude mice bearing subcutaneous BT474 cell tumors (average tumor size of 200 mm3) were randomized into five groups each containing eight mice and dosed with either vehicle (20% SBE pH3.5) or Example 57 at 60, 30 or 15 mg/kg QD or 15 mg/kg BID for 21 days. Note the maximal QD dose was reduced from 100 mg/kg to 60 mg/kg and the BID dose reduced from 30 mg/kg to 15 mg/kg. […]
# [3] = tested on: Colo-205 tumors (colon carcinoma cell line); test: In vivo efficacy, Colo-205 tumor bearing mice; parameters: species or system mouse; conditions: Colo-205 study
# Method: as §1
# [4] = LISN study (~362 mm^3), 100 mg/kg and 50 mg/kg QD
smiles,measurement,setting,value
"COc1cc(N2CCC(N3CCN(CCF)CC3)CC2)ccc1Nc1nccc(-c2c(-c3cccc(C(=O)Nc4c(F)cccc4F)c3)nc3ccccn23)n1 [Example 57, N-(2,6-difluorophenyl)-3-[3-(2-{[4-{4-[4-(2-fluoroethyl)-1-piperazinyl]-1-piperidinyl}-2-(methyloxy)phenyl]amino}-4-pyrimidinyl)imidazo[1,2-a]pyridin-2-yl]benzamide]",body weight loss,"[1]; LISN study, 30 mg/kg QD and 15 mg/kg BID treated groups, 21 days",no body weight loss
same,tolerability,"[1]; LISN study, 30 mg/kg QD and 15 mg/kg BID, 21 days",well tolerated
same,body weight loss,"[1]; LISN study, 30 mg/kg QD×3 days/week for 3 weeks, over the three consecutive days of dosing, recovered in the four days between doses",significant body weight loss
same,body weight loss,[2],no body weight loss
same,body weight lost,"[3]; 100 mg/kg QD and 30 mg/kg BID, within 10 days of dosing",greater than 20%
same,body weight loss,[3]; 30 and 10 mg/kg QD×21,no body weight loss
"COc1cc(N2CCC(N3CCN(S(C)(=O)=O)CC3)CC2)ccc1Nc1nccc(-c2c(-c3cccc(C(=O)Nc4c(F)cccc4F)c3)nc3ccccn23)n1 [Example 58, N-(2,6-difluorophenyl)-3-(3-{2-[(2-(methyloxy)-4-{4-[4-(methylsulfonyl)-1-piperazinyl]-1-piperidinyl}phenyl)amino]-4-pyrimidinyl}imidazo[1,2-a]pyridin-2-yl)benzamide]",body weight loss,"[1]; LISN study, 30, 100 and 300 mg/kg QD for 21 days, throughout the study",no effect of Example 58 on body weight loss
"CCOc1cc(N2CCC(CCS(C)(=O)=O)CC2)c(C)cc1Nc1nccc(-c2c(-c3ccc(OC)c(C(=O)Nc4c(F)cccc4F)c3)nc3ccccn23)n1 [Example 219, N-(2,6-difluorophenyl)-5-(3-{2-[(2-(ethyloxy)-5-methyl-4-{4-[2-(methylsulfonyl)ethyl]-1-piperidinyl}phenyl)amino]-4-pyrimidinyl}imidazo[1,2-a]pyridin-2-yl)-2-(methyloxy)benzamide]",time to full recovery of body weight after the completion of dosing,"[1]; LISN study (~362 mm^3), 25 mg/kg BID and 50 mg/kg BID",≤ 4 days
same,body weight loss,"[1]; LISN study (~362 mm^3), 25 mg/kg BID for 21 days",4%
same,body weight loss,"[1]; LISN study (~362 mm^3), 50 mg/kg BID for 21 days",6%
same,body weight loss,[1]; [4],no body weight loss
same,tolerability,[1]; [4],well tolerated
"CCc1cc(Nc2nccc(-c3c(-c4ccc(OC)c(C(=O)Nc5c(F)cccc5F)c4)nc4ccccn34)n2)c(OC)cc1N1CCC(N2CCN(S(C)(=O)=O)CC2)CC1 [Example 237, N-(2,6-difluorophenyl)-5-(3-{2-[(5-ethyl-2-(methyloxy)-4-{4-[4-(methylsulfonyl)-1-piperazinyl]-1-piperidinyl}phenyl)amino]-4-pyrimidinyl}imidazo[1,2-a]pyridin-2-yl)-2-(methyloxy)benzamide]",initial body weight loss,"[1]; LISN study (~362 mm^3), 30 mg/kg BID",6%
same,body weight loss by the end of dosing,"[1]; LISN study (~362 mm^3), 30 mg/kg BID, fully recovered after dosing was concluded",3%
same,body weight loss,"[1]; LISN study (~362 mm^3), other groups (30 and 60 mg/kg QD)",no effect on body weight loss
same,tumor growth inhibition at day 21,[1]; 30 mg/kg BID for 21 days,84%
same,tumor growth inhibition at day 21,"[1]; 30 mg/kg QD for 21 days, 2 animals euthanized prior to the last measurement",15%
same,tumor growth inhibition at day 21,[1]; 60 mg/kg QD for 21 days,41%
